Test results published in patent US6699862B1, “Indolyl-2-phenyl bisamidines useful as antiproliferative agents” (Pfizer Inc., priority 1999, dated 2004).

Row | Compound | melting point [°C]
1 | COC(=O)CCNCCc1c(-c2ccc(C(=N)N)cc2)[nH]c2cc(C(=N)N)ccc12.Cl.Cl | > 250
2 | COc1cc(C(=N)N)ccc1-c1cc2ccc(C(=N)N)cc2[nH]1.Cl.Cl | > 250
3 | COC(=O)c1ccc(Cc2c(-c3ccc(C(=N)N)cc3)[nH]c3cc(C(=N)N)ccc23)cc1.Cl.Cl | > 250
4 | COC(=O)c1cccc(Cc2c(-c3ccc(C(=N)N)cc3)[nH]c3cc(C(=N)N)ccc23)c1.Cl.Cl | > 250
5 | COC(=O)Cc1c(-c2ccc(C(=N)N)cc2O)[nH]c2cc(C(=N)N)ccc12.Cl.Cl | > 250
6 | COC(=O)c1cc(Cl)ccc1Cc1c(-c2ccc(C(=N)N)cc2)[nH]c2cc(C(=N)N)ccc12.Cl.Cl | > 250
7 | CNC(=N)c1ccc(-c2cc3ccc(C(=N)NC)cc3[nH]2)cc1.Cl.Cl | 282
8 | CC(C)OC(=O)C(C)Oc1cc(C(=N)N)ccc1-c1cc2ccc(C(=N)N)cc2[nH]1.Cl.Cl (centres unmarked) | 240
9 | COC(=O)C=Cc1ccc(Cc2c(-c3ccc(C(=N)N)cc3)[nH]c3cc(C(=N)N)ccc23)cc1.Cl.Cl | > 250
10 | COC(=O)C(CCCNC(=O)OCc1ccccc1)NC(=O)Cc1c(-c2ccc(C(=N)N)cc2)[nH]c2cc(C(=N)N)ccc12.Cl.Cl (centres unmarked) | 230 to 235
11 | COC(=O)C(C)NCCc1c(-c2ccc(C(=N)N)cc2)[nH]c2cc(C(=N)N)ccc12.Cl.Cl (centres unmarked) | > 250
12 | CCOC(=O)Cc1c(-c2ccc(C3=NCCN3)cc2)[nH]c2cc(C3=NCCN3)ccc12.Cl.Cl | > 300
13 | Cl.Cl.N=C(N)c1ccc(-c2[nH]c3cc(C(=N)N)ccc3c2Cc2cccc(OCC(N)=O)c2)cc1 | > 250
14 | Cl.Cl.N=C(N)c1ccc(-c2cc3ccc(C(=N)N)cc3[nH]2)c(OCC(O)CO)c1 (centres unmarked) | > 320
15 | Cl.Cl.N=C(N)c1ccc(-c2[nH]c3cc(C(=N)N)ccc3c2CC(=O)NCC(=O)NC(CCC(=O)OCc2ccccc2)C(=O)OCc2ccccc2)cc1 (centres unmarked) | 207 to 212
16 | COC(=O)CC(NCCc1c(-c2ccc(C(=N)N)cc2)[nH]c2cc(C(=N)N)ccc12)C(=O)OC.Cl.Cl (centres unmarked) | > 250

Row | Compound | melting point [°C]
17 | COC(=O)C=CCc1c(-c2ccc(C(=N)N)cc2)[nH]c2cc(C(=N)N)ccc12.Cl.Cl | > 250
18 | CC(C(=O)O)c1c(-c2ccc(C(=N)N)cc2)[nH]c2cc(C(=N)N)ccc12.Cl.Cl (centres unmarked) | > 260
19 | COC(=O)C(CO)NCCc1c(-c2ccc(C(=N)N)cc2)[nH]c2cc(C(=N)N)ccc12.Cl.Cl (centres unmarked) | > 250
20 | Cl.Cl.Fc1cc2cc(-c3ccc(C4=NCCN4)cc3)[nH]c2cc1C1=NCCN1 | > 250
21 | Cl.Cl.N=C(N)c1ccc(-c2[nH]c3cc(C(=N)N)ccc3c2CC(=O)OCCOCc2ccccc2)cc1 | > 250
22 | COC(=O)C(CCCCN)NC(=O)Cc1c(-c2ccc(C(=N)N)cc2)[nH]c2cc(C(=N)N)ccc12.Cl.Cl (centres unmarked) | > 260
23 | Cl.Cl.O=C(O)Cc1c(-c2ccc(C3=NCCN3)cc2)[nH]c2cc(C3=NCCN3)ccc12 | > 300
24 | Cl.Cl.N=C(N)c1ccc(-c2[nH]c3cc(C(=N)N)ccc3c2CC(O)CO)cc1 (centres unmarked) | > 250
25 | CCOC(=O)CNCCc1c(-c2ccc(C(=N)N)cc2)[nH]c2cc(C(=N)N)ccc12.Cl.Cl | > 250
26 | Cl.Cl.O=CCc1c(-c2ccc(C3=NCCN3)cc2)[nH]c2cc(C3=NCCN3)ccc12 | > 300
27 | Cl.Cl.N=C(N)c1ccc(-c2[nH]c3cc(C(=N)N)ccc3c2NC(=O)CCC(=O)O)cc1 | > 250
28 | COC(=O)C(NCCc1c(-c2ccc(C(=N)N)cc2)[nH]c2cc(C(=N)N)ccc12)C(C)C.Cl.Cl (centres unmarked) | > 250
29 | Cl.Cl.N=C(N)c1ccc(-c2[nH]c3cc(C(=N)N)ccc3c2CCNCC(=O)O)cc1 | > 250
30 | COC(=O)C(Cc1ccccc1)NCCc1c(-c2ccc(C(=N)N)cc2)[nH]c2cc(C(=N)N)ccc12.Cl.Cl (centres unmarked) | > 250
31 | Cl.Cl.N=C(N)c1ccc(-c2cc3ccc(C(=N)N)cc3[nH]2)c(O)c1 | > 300
32 | COC(=O)C(CCCN)NC(=O)Cc1c(-c2ccc(C(=N)N)cc2)[nH]c2cc(C(=N)N)ccc12.Cl.Cl (centres unmarked) | > 250

More lines, now with the values ahead:

Row | melting point [°C] | Compound
33 | > 250 | Cl.Cl.N#CCCOC(=O)Cc1c(-c2ccc(C(=N)N)cc2)[nH]c2cc(C(=N)N)ccc12
34 | > 250 | COCCOC(=O)Cc1c(-c2ccc(C(=N)N)cc2)[nH]c2cc(C(=N)N)ccc12.Cl.Cl
35 | > 250 | Cl.Cl.N=C(N)c1ccc(-c2[nH]c3cc(C(=N)N)ccc3c2CC(=O)OCc2ccccc2)cc1
36 | > 250 | Cl.Cl.N=C(N)c1ccc(-c2[nH]c3cc(C(=N)N)ccc3c2CC(=O)OCCCCCO)cc1
37 | > 250 | CCOC(=O)CC(C)OC(=O)Cc1c(-c2ccc(C(=N)N)cc2)[nH]c2cc(C(=N)N)ccc12.Cl.Cl (centres unmarked)
38 | > 250 | CCSCCOC(=O)Cc1c(-c2ccc(C(=N)N)cc2)[nH]c2cc(C(=N)N)ccc12.Cl.Cl
39 | > 250 | CCCCS(=O)(=O)CCOC(=O)Cc1c(-c2ccc(C(=N)N)cc2)[nH]c2cc(C(=N)N)ccc12.Cl.Cl
40 | > 250 | Cl.Cl.N=C(N)c1ccc(-c2[nH]c3cc(C(=N)N)ccc3c2CC(=O)OCC(O)CO)cc1 (centres unmarked)
41 | > 270 | CCCOC(=O)Cc1c(-c2ccc(C(=N)N)cc2)[nH]c2cc(C(=N)N)ccc12.Cl.Cl
42 | > 250 | Cl.Cl.N=C(N)c1ccc(-c2[nH]c3cc(C(=N)N)ccc3c2CC(=O)O)cc1
43 | > 250 | Cl.Cl.N=C(N)c1ccc(-c2[nH]c3cc(C(=N)N)ccc3c2CC(=O)OCCc2cccs2)cc1
44 | > 250 | Cl.Cl.N=C(N)c1ccc(-c2[nH]c3cc(C(=N)N)ccc3c2CC(=O)OCC2CCCCO2)cc1 (centres unmarked)
45 | > 250 | Cl.Cl.N=C(N)c1ccc(-c2[nH]c3cc(C(=N)N)ccc3c2CC(=O)OCCOCCO)cc1
46 | > 270 | CCCCOC(=O)Cc1c(-c2ccc(C(=N)N)cc2)[nH]c2cc(C(=N)N)ccc12.Cl.Cl
47 | > 250 | Cl.Cl.N=C(N)c1ccc(-c2[nH]c3cc(C(=N)N)ccc3c2CC(=O)OCCO)cc1
48 | > 250 | COC(=O)CNCCc1c(-c2ccc(C(=N)N)cc2)[nH]c2cc(C(=N)N)ccc12.Cl.Cl
49 | > 250 | C=CCOC(=O)Cc1c(-c2ccc(C(=N)N)cc2)[nH]c2cc(C(=N)N)ccc12.Cl.Cl
50 | > 250 | COCCOCCOC(=O)Cc1c(-c2ccc(C(=N)N)cc2)[nH]c2cc(C(=N)N)ccc12.Cl.Cl
